Data reported in patent publication US11912688B2, “1, 3-dioxolane derivative” (TOHOKU UNIVERSITY, priority 2019, dated 2024).

Experiments:
[1] = tested on: ChREBP; assay: ChREBP target gene expression analysis in the kidney by quantitative PCR (iNOS mice); type: in vivo, mouse; conditions: iNOS mice of Test Example 3, quantitative PCR
Method: (§1) In the mice used in Test Example 3, the expression variations of ChREBPβ and the TXNIP genes, which are target genes of ChREBP in the kidney, were analyzed by quantitative PCR in the method of the previous report (Genes to Cells 19 (2013) 52-65). The following primer set was used for the amplification of ChREBPβ.
A primer set used for the amplification of the TXNIP gene is as mentioned above.

[2] = tested on: db/db mice; assay: Relationship between blood sugar level and amount of albumin excreted in urine (ACR), regression lines, db/db mice; type: in vivo, mouse; conditions: experimental vs control group, least squares regression, FIG. 25
Description: As to the blood sugar levels and the amounts of albumin excreted in urine (ACR) of the experimental group and the control group (non-administered group of db/db mice) in Test Example 7, a scatter diagram was created using SPSS, which is statistical analysis software, so that the abscissa axis is the blood sugar level, and the ordinate axis is the ACR, and regression lines (linear approximation by the least squares method) were found.

[3] = tested on: ChREBP; assay: ChREBP target gene expression analysis in the kidney by quantitative PCR (db/db mice); type: in vivo, mouse; conditions: db/db mice of Test Example 7, quantitative PCR
Method: as §1
In the mice used in Test Example 7, ChREBP target gene expression analysis was performed by the same method as in Test Example 4. FIG. 22 and FIG. 23 show the results.

[4] = tested on: iNOS transgenic mice; assay: Test using mice developing diabetic nephropathy (iNOS transgenic mice); type: in vivo, mouse; conditions: 6 mg/kg/day oral
Description: iNOS transgenic mice (Takamura T. et al., J Biol Chem. 1998; 273: 2493-2496; received from Emeritus Professor Hiroshi Okamoto, Tohoku University) were used as model mice. According to the literature of Takamura et al., breeding in which 4-week-old model mice (experimental group: n=8, control group: n=6) and a wild type group (n=8), which is non-transgenic mice born simultaneously with the model mice by mating iNOS transgenic mice and wild type (CD1 (ICR)) mice, were fed with high protein and high calorie diets was performed for 13 weeks. Compound 12 (D-532) was further orally administered to the experimental group in 6 mg/kg/day. As to the groups, the body weights were measured every day, and the blood sugar levels, the albumin in urine, and the creatinine in urine were measured in accordance with the usual method every 3 weeks. The groups were sacrificed after the breeding, the serum creatinine in the blood collected from the abdominal vena cava at the time of dissection was measured, and the gene expression in the kidneys collected at the time of dissection was analyzed. The kidney tissues were stained with HE and PAS and observed.
Further, the […] tissue section images were subjected to ImageJ (http://imagej.nih.gov/ij/) and measured according to the operation manual attached to ImageJ. When each glomerulus area (each group, n=100) and an area obtained by excluding regions of no interest such as vascular lumens and nuclei from the each glomerulus area were found, and the ratio therebetween, namely the PAS-positive area ratio in glomeruli, was found, the ratio increased in the model mice, and the improvement was meanwhile confirmed in the administered group.

[5] = tested on: iNOS transgenic mice; assay: Observation of mouse kidney tissues by transmission electron microscope (iNOS mice); type: in vivo; conditions: iNOS mice of Test Example 3, transmission electron microscope; FIG. 16C
Method: The kidneys of model mice in the administered group and the non-administered group, and a mouse in the wild type group in Test Example 3 were placed in a prefixing solution containing 2% PFA (FUJIFILM Wako Pure Chemical Corporation; 163-20145)/2.5% glutaraldehyde (TAAB Laboratories Equipment Ltd.; G017/1)/0.1 M cacodylate buffer solution (FUJIFILM Wako Pure Chemical Corporation; 036-18175) and treated at room temperature for 2 hours. The prefixed kidneys were washed with 0.1 M cacodylate buffer solution (containing 8% sucrose (FUJIFILM Wako Pure Chemical Corporation: 196-00015)) on ice for 15 minutes×4 times and treated with postfixing solution containing 1% osmium tetroxide (FUJIFILM Wako Pure Chemical Corporation; 154-01014) on ice for 90 minutes. The postfixed kidneys were washed with ultrapure water for 15 minutes×3 times, placed in aqueous 50, 60, 70, 80, 90, and 95% ethanol solutions each for 10 minutes×1 time, further in 100% ethanol for 20 minutes×3 times, and subjected to ethanol dehydration. […]

For `c1ccc(COC[C@H]2CO[C@@](Cn3nnc4ccccc43)(c3ccccc3)O2)cc1` [Example D-532, 1-(((2S,4S)-4-((benzyloxy)methyl)-2-phenyl-1,3-dioxolan-2-yl)methyl)-1H-benzo[d][1,2,3]triazole], which “expression of ChREBPβ gene in the kidney” value ([1]; FIG. 10) is on record?
Its value is “decrease in expression”.

What about the “expression of TXNIP gene in the kidney” value ([1]; FIG. 11) of the same compound?
Its value is “decrease in expression”.

What about the “effect on ACR relative to blood sugar level (gradient of the regression line)” value [2] of the same compound?
Its value is “direct effect on the kidney”.

What about the “expression of ChREBPβ gene in the kidney” value ([3]; FIG. 22) of the same compound?
The value was “Decrease in the expression”.

What about the “expression of TXNIP gene in the kidney” value ([3]; FIG. 23) of the same compound?
The value was “Decrease in the expression”.

What about the blood sugar level ([4]; 13 weeks, vs control group, FIG. 4) of the same compound?
The blood sugar level was “significantly low value as compared with the control group”.

And the “amount of albumin excreted in urine” value ([4]; 13 weeks, vs control group, FIG. 5)?
The value was “significant low value”.

And the “increase in blood creatinine” value ([4]; at dissection, FIG. 6)?
The value was “significantly improved”.

What about the “structure of foot processes in kidney tissue” value [5] of the same compound?
The value was “suppressed the structural change of the foot processes”.
